Measured values from patent publication US10881108B2, “Method of protecting field corn from damage by a plant pathogen” (SUMITOMO CHEMICAL COMPANY, LIMITED, priority 2019, dated 2021).

Experiments:
Format in all cases: in vivo
Cercospora zeae-maydis [1] = experiment: Seed coating, then grey leaf spot inoculation; fresh weight of aerial part; details: seed coating 0.2 mg per seed, 20 g per hectare, 14 days from inoculation
Protocol: Seeds of field corn are coated with a mefentrifluconazole aqueous suspension concentrate so that the amount of mefentrifluconazole to be applied to each seed may be 0.2 mg. Then, the field corn seeds are sown to a pot filled with a soil at a sowing rate of 100,000 seeds per hectare. That is, the application rate of mefentrifluconazole is 20 g per hectare. Then, the field corn is incubated in a greenhouse for 10 days, followed by inoculating a pathogen of grey leaf spot (Cercospora zeae-maydis) to the foliage of field corn. The field corn is incubated in a greenhouse for 14 days from the inoculation, and then the fresh weight of the aerial part of the field corn is measured. It is confirmed that the fresh weight is equivalent to that of the control where field corn is not treated with mefentrifluconazole and the pathogen is not inoculated (no-treatment-no-inoculation control) and is bigger than that of the control where field corn is not treated with mefentrifluconazole and the pathogen is inoculated (no-treatment-inoculation control). The same procedure of the example 2 is repeated except for replacing field corn with popcorn, sweet corn, or waxy corn. It is confirmed that the fresh weight of popcorn, sweet corn, or waxy corn is smaller than that of the corresponding no-treatment-no-inoculation control and is equivalent to that of the corresponding no-treatment-inoculation control.

Cercospora zeae-maydis [2] = experiment: Dripping onto primary leaf, then grey leaf spot inoculation; fresh weight of aerial part; details: dripped onto primary leaf 0.2 mg per plant, 200 g per hectare, 14 days from inoculation
Protocol: Field corn is sown to a pot filled with a soil at a sowing rate of 1,000,000 seeds per hectare. The field corn is incubated for 10 days in a greenhouse, and then mefentrifluconazole dilution liquid (prepared by diluting an aqueous suspension concentrate of mefentrifluconazole with water) is dripped onto the primary leaf of field corn so that the amount of mefentrifluconazole to be applied to each plant may be 0.2 mg. That is, the application rate of mefentrifluconazole is 200 g per hectare. On the next day of the application, a pathogen of grey leaf spot (Cercospora zeae-maydis) is inoculated to the foliage of field corn. The field corn is incubated in a greenhouse for 14 days from the inoculation, and then fresh weight of the aerial part of the field corn is measured. It is confirmed that the fresh weight is equivalent to that of the control where field corn is not treated with mefentrifluconazole and the pathogen is not inoculated (no-treatment-no-inoculation control) and is bigger than that of the control where field corn is not treated with mefentrifluconazole and the pathogen is inoculated (no-treatment-inoculation control). The same procedure of the example 3 is repeated except for replacing field corn with popcorn, sweet corn, or waxy corn. It is confirmed that the fresh weight of popcorn, sweet corn, or waxy corn is smaller than that of the corresponding no-treatment-no-inoculation control and is equivalent to that of the corresponding no-treatment-inoculation control.

Cercospora zeae-maydis [3] = experiment: Dripping onto first leaf, then grey leaf spot inoculation; plant length of aerial part; details: 100 g per hectare; for Plant length in treatment plot (A) / Treatment/control ratio (100 × A/B): dripped onto first leaf 0.1 mg per plant, 7 days from inoculation; for protection from the damage by the pathogen: dripped onto first leaf
Protocol: Four varieties of field corn were sown to a pot filled with a soil at a sowing rate of 1,000,000 seeds per hectare. Then each field corn was incubated for 7 days in a greenhouse. A mefentrifluconazole dilution liquid (prepared by diluting an aqueous suspension concentrate of mefentrifluconazole with water) is dripped onto the first leaf of field corn plants so that the amount of mefentrifluconazole to be applied to each plant might be 0.1 mg. That is, the application rate of mefentrifluconazole was 100 g per hectare. Five days after the application, a pathogen of grey leaf spot (Cercospora zeae-maydis) was inoculated to the foliage of each field corn. Each field corn was incubated in a greenhouse for 7 days from the inoculation, and then plant length of the aerial part of each field corn was measured. The plant length is referred to as ‘the plant length in treatment plot’. As a control experiment, the same procedure was repeated except that dripping treatment with mefentrifluconazole dilution liquid and the inoculation of the pathogen were not conducted. The plant length obtained in the control experiment is referred to as ‘the plant length in control plot’. The same procedure of the example 5 was repeated except for replacing four varieties of field corn with two varieties of popcorn, a variety of sweet corn, and two varieties of waxy corn.

Cercospora zeae-maydis [4] = experiment: Seed dipping, then grey leaf spot inoculation; plant length of aerial part; details: seed dipping 0.2 mg per seed, 200 g per hectare; for Plant length in treatment plot (A) / Treatment/control ratio (100 × A/B): 7 days from inoculation
Protocol: Seeds of three varieties of field corn were separately dipped in a mefentrifluconazole dilution liquid (prepared by diluting an aqueous suspension concentrate of mefentrifluconazole with water) so that the amount of mefentrifluconazole to be applied to each seed might be 0.2 mg. Then, the field corn seeds were sown to a pot filled with a soil at a sowing rate of 1,000,000 seeds per hectare. That is, the application rate of mefentrifluconazole was 200 g per hectare. Each field corn was incubated in a greenhouse for 12 days from the sowing, and then a pathogen of grey leaf spot (Cercospora zeae-maydis) was inoculated to the foliage of each field corn. Each field corn was incubated in a greenhouse for 7 days from the inoculation, and then plant length of the aerial part of each field corn was measured. The plant length is referred to as ‘the plant length in treatment plot’. As a control experiment, the same procedure was repeated except that dipping treatment with mefentrifluconazole dilution liquid and the inoculation of the pathogen were not conducted. The plant length obtained in the control experiment is referred to as ‘the plant length in control plot’. The same procedure of the example 4 was repeated except for replacing three varieties of field corn with a variety of popcorn, and two varieties of waxy corn.

Cercospora zeae-maydis [5] = experiment: Foliar spray on potted corn, then grey leaf spot inoculation; fresh weight of aerial part; details: foliar spray 500 g per hectare, 14 days from inoculation
Protocol: Field corn is sown to a pot filled with a soil. It is incubated for 7 days in a greenhouse. Mefentrifluconazole spray liquid (prepared by diluting an aqueous suspension concentrate of mefentrifluconazole with water) is uniformly sprayed onto the foliage of field corn at the amount of 200 L per hectare so that the application rate of mefentrifluconazole may be 500 g per hectare. On the next day of the spraying, a pathogen of grey leaf spot (Cercospora zeae-maydis) is inoculated to the foliage of field corn. The field corn is incubated in a greenhouse for 14 days from the inoculation, and then fresh weight of the aerial part of the field corn is measured. It is confirmed that the fresh weight is equivalent to that of the control where field corn is not treated with mefentrifluconazole and the pathogen is not inoculated (no-treatment-no-inoculation control) and is bigger than that of the control where field corn is not treated with mefentrifluconazole and the pathogen is inoculated (no-treatment-inoculation control). The same procedure of the example 1 is repeated except for replacing field corn with popcorn, sweet corn, or waxy corn. It is confirmed that the fresh weight of popcorn, sweet corn, or waxy corn is smaller than that of the corresponding no-treatment-no-inoculation control and is equivalent to that of the corresponding no-treatment-inoculation control.

[6] = popcorn, sweet corn, or waxy corn

CC(O)(Cn1cncn1)c1ccc(Oc2ccc(Cl)cc2)cc1C(F)(F)F (stereo not drawn) [mefentrifluconazole]
fresh weight of the aerial part compared with no-treatment-inoculation control (Cercospora zeae-maydis [1]; field corn): bigger
fresh weight of the aerial part compared with no-treatment-no-inoculation control (Cercospora zeae-maydis [1]; field corn): equivalent
fresh weight compared with no-treatment-inoculation control (Cercospora zeae-maydis [1]; [6]): equivalent
fresh weight compared with no-treatment-no-inoculation control (Cercospora zeae-maydis [1]; [6]): smaller
fresh weight of the aerial part compared with no-treatment-inoculation control (Cercospora zeae-maydis [2]; field corn): bigger
fresh weight of the aerial part compared with no-treatment-no-inoculation control (Cercospora zeae-maydis [2]; field corn): equivalent
fresh weight compared with no-treatment-inoculation control (Cercospora zeae-maydis [2]; [6]): equivalent
fresh weight compared with no-treatment-no-inoculation control (Cercospora zeae-maydis [2]; [6]): smaller
Plant length in treatment plot (A) (Cercospora zeae-maydis [3]; Field corn/DKC5632): 63 cm
Treatment/control ratio (100 × A/B) (Cercospora zeae-maydis [3]; Field corn/DKC5632): 103
Plant length in treatment plot (A) (Cercospora zeae-maydis [3]; Field corn/Koshu): 65 cm
Treatment/control ratio (100 × A/B) (Cercospora zeae-maydis [3]; Field corn/Koshu): 108
Plant length in treatment plot (A) (Cercospora zeae-maydis [3]; Field corn/MAS40F): 64 cm
Treatment/control ratio (100 × A/B) (Cercospora zeae-maydis [3]; Field corn/MAS40F): 102
Plant length in treatment plot (A) (Cercospora zeae-maydis [3]; Field corn/Pioneer 2088): 62 cm
Treatment/control ratio (100 × A/B) (Cercospora zeae-maydis [3]; Field corn/Pioneer 2088): 103
Plant length in treatment plot (A) (Cercospora zeae-maydis [3]; Popcorn/Maru-pop): 45 cm
Treatment/control ratio (100 × A/B) (Cercospora zeae-maydis [3]; Popcorn/Maru-pop): 80
Plant length in treatment plot (A) (Cercospora zeae-maydis [3]; Popcorn/Yuki-pop): 53 cm
Treatment/control ratio (100 × A/B) (Cercospora zeae-maydis [3]; Popcorn/Yuki-pop): 84
Plant length in treatment plot (A) (Cercospora zeae-maydis [3]; Sweet corn/Rancher 82): 31 cm
Treatment/control ratio (100 × A/B) (Cercospora zeae-maydis [3]; Sweet corn/Rancher 82): 91
Plant length in treatment plot (A) (Cercospora zeae-maydis [3]; Waxy corn/Ki-mochi): 29 cm
Treatment/control ratio (100 × A/B) (Cercospora zeae-maydis [3]; Waxy corn/Ki-mochi): 67
Plant length in treatment plot (A) (Cercospora zeae-maydis [3]; Waxy corn/Shiro-mochi): 43 cm
Treatment/control ratio (100 × A/B) (Cercospora zeae-maydis [3]; Waxy corn/Shiro-mochi): 73
protection from the damage by the pathogen (Cercospora zeae-maydis [3]; each field corn (four varieties), Table 3): successfully protected
protection from the damage by the pathogen (Cercospora zeae-maydis [3]; popcorns, sweet corn and waxy corns, Table 4): not successfully protected
Plant length in treatment plot (A) (Cercospora zeae-maydis [4]; Field corn/DKC5632): 58 cm
Treatment/control ratio (100 × A/B) (Cercospora zeae-maydis [4]; Field corn/DKC5632): 95
Plant length in treatment plot (A) (Cercospora zeae-maydis [4]; Field corn/Koshu): 63 cm
Treatment/control ratio (100 × A/B) (Cercospora zeae-maydis [4]; Field corn/Koshu): 105
Plant length in treatment plot (A) (Cercospora zeae-maydis [4]; Field corn/MAS40F): 61 cm
Treatment/control ratio (100 × A/B) (Cercospora zeae-maydis [4]; Field corn/MAS40F): 97
Plant length in treatment plot (A) (Cercospora zeae-maydis [4]; Popcorn/Yuki-pop): 45 cm
Treatment/control ratio (100 × A/B) (Cercospora zeae-maydis [4]; Popcorn/Yuki-pop): 80
Plant length in treatment plot (A) (Cercospora zeae-maydis [4]; Waxy corn/Ki-mochi): 30 cm
Treatment/control ratio (100 × A/B) (Cercospora zeae-maydis [4]; Waxy corn/Ki-mochi): 70
Plant length in treatment plot (A) (Cercospora zeae-maydis [4]; Waxy corn/Shiro-mochi): 51 cm
Treatment/control ratio (100 × A/B) (Cercospora zeae-maydis [4]; Waxy corn/Shiro-mochi): 86
protection of field corns compared with popcorn or waxy corns (Cercospora zeae-maydis [4]; Tables 1 and 2): protected much more effectively
fresh weight of the aerial part compared with no-treatment-inoculation control (Cercospora zeae-maydis [5]; field corn): bigger
fresh weight of the aerial part compared with no-treatment-no-inoculation control (Cercospora zeae-maydis [5]; field corn): equivalent
fresh weight compared with no-treatment-inoculation control (Cercospora zeae-maydis [5]; [6]): equivalent
fresh weight compared with no-treatment-no-inoculation control (Cercospora zeae-maydis [5]; [6]): smaller
